Values after ≈ are worked out from the molar mass of the structure shown.
Legend:
Bacillus subtilis = assay: Antibacterial activity against Bacillus subtilis assessed as reduction in microbial growth after 18 hrs by MTT based broth dilution method; type: functional
Bacillus anthracis = assay: Antibacterial activity against Bacillus anthracis assessed as reduction in microbial growth after 18 hrs by MTT based broth dilution method; type: functional
Bacillus cereus = assay: Antibacterial activity against Bacillus cereus assessed as reduction in microbial growth after 18 hrs by MTT based broth dilution method; type: functional
Priestia megaterium = assay: Antibacterial activity against Bacillus megaterium assessed as reduction in microbial growth after 18 hrs by MTT based broth dilution method; type: functional
Klebsiella aerogenes = assay: Antibacterial activity against Enterobacter aerogenes assessed as reduction in microbial growth after 18 hrs by MTT based broth dilution method; type: functional
Kocuria rhizophila = assay: Antibacterial activity against Kocuria rhizophila assessed as reduction in microbial growth after 18 hrs by MTT based broth dilution method; type: functional
Micrococcus luteus = assay: Antibacterial activity against Micrococcus lysodeikticus assessed as reduction in microbial growth after 18 hrs by MTT based broth dilution method; type: functional
Nocardia brasiliensis = assay: Antibacterial activity against Nocardia brasiliensis assessed as reduction in microbial growth after 18 hrs by MTT based broth dilution method; type: functional
Proteus vulgaris = assay: Antibacterial activity against Proteus vulgaris assessed as reduction in microbial growth after 18 hrs by MTT based broth dilution method; type: functional
Pseudomonas aeruginosa = assay: Antibacterial activity against Pseudomonas aeruginosa assessed as reduction in microbial growth after 18 hrs by MTT based broth dilution method; type: functional
Salmonella typhi = assay: Antibacterial activity against Salmonella typhi assessed as reduction in microbial growth after 18 hrs by MTT based broth dilution method; type: functional, Salmonella enterica subsp. enterica serovar Typhi; details: Salmonella enterica
[1] = tested on: Salmonella enterica subsp. enterica serovar Paratyphi B; assay: Antibacterial activity against Salmonella paratyphi B assessed as reduction in microbial growth after 18 hrs by MTT based broth dilution method; type: functional
Shigella dysenteriae = assay: Antibacterial activity against Shigella dysenteriae assessed as reduction in microbial growth after 18 hrs by MTT based broth dilution method; type: functional
Vibrio parahaemolyticus = assay: Antibacterial activity against Vibrio parahaemolyticus assessed as reduction in microbial growth after 18 hrs by MTT based broth dilution method; type: functional
Escherichia coli = assay: Antibacterial activity against Escherichia coli assessed as reduction in microbial growth after 18 hrs by MTT based broth dilution method; type: functional
Candida albicans = assay: Antifungal activity against Candida albicans assessed as reduction in microbial growth; type: functional
Colletotrichum truncatum = assay: Antifungal activity against Colletotrichum truncatum assessed as reduction in microbial growth; type: functional
[2] = Antifungal activity against Gloeosporium musarum assessed as reduction in microbial growth; type: functional
Pestalotiopsis calabae = assay: Antifungal activity against Pestalotia calabae assessed as reduction in microbial growth; type: functional
Heterosigma akashiwo = assay: Anti-phytoplankton activity against Heterosigma akashiwo after 96 hrs by fluorometric method; type: functional, organism-based
Isochrysis galbana = assay: Anti-phytoplankton activity against Isochrysis galbana after 96 hrs by fluorometric method; type: functional, organism-based
Karenia mikimotoi = assay: Anti-phytoplankton activity against Karenia mikimotoi after 96 hrs by fluorometric method; type: functional, organism-based
Tetraselmis helgolandica = assay: Anti-phytoplankton activity against Platymonas helgolandica after 96 hrs by fluorometric method; type: functional, organism-based

Row | SMILES | MIC (Bacillus subtilis) | MIC (Bacillus anthracis) | MIC (Bacillus cereus) | MIC (Priestia megaterium) | MIC (Klebsiella aerogenes) | MIC (Kocuria rhizophila) | MIC (Micrococcus luteus) | MIC (Nocardia brasiliensis) | MIC (Proteus vulgaris) | MIC (Pseudomonas aeruginosa) | MIC (Salmonella typhi) | MIC [1] | MIC (Shigella dysenteriae) | MIC (Vibrio parahaemolyticus) | MIC (Escherichia coli) | MIC (Candida albicans) | MIC (Colletotrichum truncatum) | MIC [2] | MIC (Pestalotiopsis calabae) | EC50 (Heterosigma akashiwo) | other results
1 | O=C(O)c1cn(C2CC2)c2cc(N3CCNCC3)c(F)cc2c1=O [CIPROFLOXACIN] | 0.09 µg/mL | 0.19 µg/mL | 0.09 µg/mL | 0.19 µg/mL | 0.05 µg/mL | 0.19 µg/mL | 0.19 µg/mL | 0.19 µg/mL | 0.09 µg/mL | 0.19 µg/mL | 0.09 µg/mL | 0.05 µg/mL | 0.19 µg/mL | 0.19 µg/mL | – | – | – | – | – | – | –
2 | CC1=C(Cc2c(C)cccc2O)C(=O)[C@@](C)(O)[C@H](O)C1 | 1.56 µg/mL | 0.39 µg/mL | 0.39 µg/mL | 0.19 µg/mL | 1.56 µg/mL | 0.39 µg/mL | 0.78 µg/mL | 0.39 µg/mL | 1.56 µg/mL | 1.56 µg/mL | 0.19 µg/mL | 0.39 µg/mL | 6.25 µg/mL | 3.13 µg/mL | 3.13 µg/mL | 3.13 µg/mL | 3.13 µg/mL | 3.13 µg/mL | 3.13 µg/mL | > 50 µg/mL | EC50 (Isochrysis galbana): > 50 µg/mL; EC50 (Karenia mikimotoi): > 50 µg/mL; EC50 (Tetraselmis helgolandica): 16.8 µg/mL (≈ 60.8 µM)
3 | CC1=C(Cc2c(C)cccc2O)C(=O)[C@@](C)(O)[C@@H](O)C1 | 0.19 µg/mL | 0.19 µg/mL | 0.19 µg/mL | 0.19 µg/mL | 0.19 µg/mL | 0.19 µg/mL | 0.39 µg/mL | 0.19 µg/mL | 0.39 µg/mL | 0.19 µg/mL | 0.19 µg/mL | 0.19 µg/mL | 3.13 µg/mL | 0.39 µg/mL | 1.56 µg/mL | 1.56 µg/mL | 1.56 µg/mL | 3.13 µg/mL | 1.56 µg/mL | > 50 µg/mL | EC50 (Isochrysis galbana): > 50 µg/mL; EC50 (Karenia mikimotoi): > 50 µg/mL; EC50 (Tetraselmis helgolandica): 12.3 µg/mL (≈ 44.5 µM)
4 | CC(=O)N1CCN(c2ccc(OCC3COC(Cn4ccnc4)(c4ccc(Cl)cc4Cl)O3)cc2)CC1 (centres undefined) [KETOCONAZOLE] | – | – | – | – | – | – | – | – | – | – | – | – | – | – | – | 0.78 µg/mL | 0.19 µg/mL | 0.39 µg/mL | 0.78 µg/mL | – | –
